Series [1] deals with LoVo/Dx. Nature of the series: MTT cytotoxicity, multidrug-resistant subline LoVo/DX. It is filed as cell-based, human. The following applies: for IC50: Homo sapiens, read-out: IC50 LoVo/Dx (concentration causing 50% inhibition of tumor cells growth). The procedure: (§1) The evaluation of the biological activity for the compounds of this invention was performed "in vitro" and "in vivo" following the protocols developed by the U.S. National Cancer Institute.
(§2) The evaluation of the "in vitro" cytotoxic activity of the compounds of the invention was performed using the following cell lines: a murine sarcoma (S-180) and its subline expressing multidrug resistance (S-180/A-10), a leukemia (L1210), a human colon adenocarcinoma cell line (LoVo) isolated from a metastatic nodule and its subline expressing multidrug resistance. This latter subline is resistant to a number of antitumor agents, among which are doxorubicin, VP-16 and vincristine.
The columns headed L1210, S180 LoVo and LoVo/Dx contain the IC50 values against said tumor cell lines, as above described. […]
(§3) CYTOTOXICITY ON LOVO AND LOVO/DX WAS DETERMINED BY MTT ASSAY FOLLOWING 1

The subject of the next series is LoVo. The experiment in a line: MTT cytotoxicity, human colon adenocarcinoma LoVo. It is filed as cell-based. As to conditions: read-out: IC50 LoVo (concentration causing 50% inhibition of tumor cells growth). On the procedure: as §1, §2
(§4) The columns headed L1210, S180 LoVo and LoVo/Dx contain the IC50 values against said tumor cell lines, as above described.
as §3

The conditions of series [2]: rat; cited from earlier work.
For series [3] the following is noted: W.H.O. grade; phase I and phase II clinical trials; cited from earlier work.
The conditions of series [4]: humans; cited from earlier work.
The next series deals with S180. The experiment in a line: MTT cytotoxicity, murine sarcoma S-180. It is filed as cell-based. As to conditions: Mus musculus; murine sarcoma S-180, MTT assay; read-out: IC50 S180 (concentration causing 50% inhibition of tumor cells growth). The procedure: as §1, §2, §4
(In general: Tetrazolium assays rely on reduction of a dye to a coloured formazan, in cell work by metabolically active cells.)

The test system of another series is L1210. Nature of the series: MTT cytotoxicity, leukemia L1210. As to conditions: Mus musculus, MTT assay, read-out: IC50 L1210 (concentration causing 50% inhibition of tumor cells growth). It is filed as cell-based. On the procedure: as §1, §2, §4
Series [5] has as its system LoVo/Dx. The following applies: in words; cited from earlier work.
The conditions of series [6]: in vivo; cited from earlier work.
Series [7] deals with cell histotypes developing resistance against doxorubicin mediated by overexpression of glycoprotein P. As to conditions: MDR; cited from earlier work.
For series [8] the following is noted: cited from earlier work.
The conditions of series [9]: i.p., non-tumor bearing rats, equieffective antitumor dosages; cited from earlier work.
For series [10], the system named is advanced breast cancer, acute leukemia and lymphoma. The following applies: cited from earlier work.
The mark [11] stands for this setting: LoVo/Dx multidrug-resistant subline, MTT assay, following 1 hour of drug exposure.
The mark [12] stands for this setting: MTT assay, following 1 hour of drug exposure.
Setting [13] is: in animals, versus mitoxantrone.

Converted amounts (≈) assume the structure as drawn. Read-outs that look alike come from different tables or passages of the source.

As to `O=C1c2c(O)cccc2-c2nn(CCNCCO)c3ccc(NCCNCCO)c1c23` [CI-941], in the series on LoVo/Dx [1] (LoVo/DX, 1 h), the IC50 worked out at 44.5 µg/mL (≈ 105 µM). Besides, the “activity in the resistant cell line” value with LoVo/Dx [1] (LoVo/DX, in words) was “loses completely its activity”. The IC50 in the series with LoVo (1 h) was found to be 0.053 µg/mL (≈ 0.125 µM). For the same molecule, the nephrotoxicity result in [2] was “marked nephrotoxicity”. In [3], the “leukopenia (dose limiting)” value is “grade 3 and 4”; the “neutropenia (dose limiting)” value was “grade 4”. Moreover, in [4], the cardiotoxicity entry was “irreversible cardiotoxicity” and the “symptoms of cardiac failure or acute cardiac events” value is reported as “no symptoms of cardiac failure or acute cardiac events”.
Consider `CN(C)CCn1nc2c3c(c([N+](=O)[O-])ccc31)Sc1ncccc1-2` [Example 1], for which the IC50 was 0.17 µg/mL (≈ 0.498 µM) in the series with S180 and 0.08 µg/mL (≈ 0.234 µM) with L1210.
In the same order, the values of `CN(C)CCn1nc2c3c(c([N+](=O)[O-])ccc31)Sc1cnccc1-2` [Example 3, N,N-dimethyl-5-nitro-2H-pyrido[4',3':5,6]thiopyrano[4,3,2-cd]indazole-2-ethanamine] are 0.14 µg/mL (≈ 0.41 µM) and 0.05 µg/mL (≈ 0.146 µM).
In the same order, the values of `CN(C)CCn1nc2c3c(c([N+](=O)[O-])ccc31)Sc1ccncc1-2` [Example 4, N,N-dimethyl-5-nitro-2H-pyrido[3',4':5,6]thiopyranol[4,3,2cd]indazole-2-ethanamine] are 0.0032 µg/mL (≈ 0.00937 µM) and 0.00062 µg/mL (≈ 0.00182 µM).
Regarding `CN(C)CCn1nc2c3c(c(N)ccc31)Sc1ccncc1-2` [Example 5, N,N-dimethyl-5-amino-2H-pyrido[3',4':5,6]thiopyrano[4,3,2-cd]indazole-2-ethanamine], the IC50 was found to be 0.027 µg/mL (≈ 0.0867 µM) with LoVo/Dx [1] (setting [11]), 0.016 µg/mL (≈ 0.0514 µM) in the series on LoVo (setting [12]), 0.0066 µg/mL (≈ 0.0212 µM) with S180 and 0.003 µg/mL (≈ 0.00963 µM) with L1210.
The like results for `CN(C)CCNc1ccc2c3c(nn2CCN(C)C)-c2cccnc2Sc13` [Example 6, N'-[2-[2-(dimethylamino)ethyl]-2H-pyrido[3',2':5,6]thiopyrano[4,3,2-cd]indazol-5-yl]--N,N-dimethyl-1,2-ethanediamine] were, in that order, 2.6 µg/mL (≈ 6.8 µM), 2.4 µg/mL (≈ 6.27 µM), 0.028 µg/mL (≈ 0.0732 µM) and 0.008 µg/mL (≈ 0.0209 µM).
In the same order, the values of `CN(C)CCn1nc2c3c(c(NCCN)ccc31)Sc1ncccc1-2` [Example 7, N'-[2-[2-(dimethylamino)lethyl]-2H-pyrido[3',2':5,6]thiopyrano[4,3,2-cd]indazol-5-yl]l-1,2-ethanediamine] are 16.8 µg/mL (≈ 47.4 µM), 0.027 µg/mL (≈ 0.0762 µM), 0.058 µg/mL (≈ 0.164 µM) and 0.0125 µg/mL (≈ 0.0353 µM).
The like results for `CN(C)CCn1nc2c3c(c(NCCN)ccc31)Sc1ccncc1-2` [Example 8] were, in that order, 0.26 µg/mL (≈ 0.733 µM), 0.008 µg/mL (≈ 0.0226 µM), 0.0029 µg/mL (≈ 0.00818 µM) and 0.0016 µg/mL (≈ 0.00451 µM).
`COc1cc(C2c3cc4c(cc3C(OC3OC5COC(C)OC5C(O)C3O)C3COC(=O)C23)OCO4)cc(OC)c1O` (stereo not shown) [VP-16]: in the series with LoVo/Dx [5], the “resistance of the LoVo/DX subline” value was “resistant”.
Consider `O=C1c2ccccc2C(=O)c2c(NCCNCCO)ccc(NCCNCCO)c21` [ametantrone, 1,4-bis[(2-(2-hydroxyethylamino)ethyl)amino]anthracene-9,10-dione], for which the myelodepressive toxicity result in [6] was “remarkable myelodepressive toxicity”. In addition, the “cross-resistance to doxorubicin-resistant cell histotypes” value in [7] is reported as “cross-resistance”. Also, in series [8] (setting [13]), the “cardiotoxicity relative to mitoxantrone” value is recorded as “about 10 -fold less” and the “potency relative to mitoxantrone” value is reported as “about 10 -fold less”.
As to `COc1cccc2c1C(=O)c1c(O)c3c(c(O)c1C2=O)C[C@@](O)(C(=O)CO)C[C@@H]3O[C@H]1C[C@H](N)[C@H](O)[C@H](C)O1` [doxorubicin, reference compound], in the series with LoVo/Dx [5], the “accumulation of doxorubicin in LoVo/DX” value is “reduced accumulation” and the “resistance of the LoVo/DX subline” value is “resistant”. The IC50 in the series with LoVo/Dx [1] (LoVo/DX, 1 h) stood at 53.8 µg/mL (≈ 99 µM). Also, in the series on LoVo (1 h), the IC50 was 0.58 µg/mL (≈ 1.07 µM).
Consider `CN(C)CCn1nc2c3c(c(NCCN)ccc31)Sc1cnccc1-2` [ex.9-cpd 30, N'-[2-[2-(dimethylamino)ethyl]-2H-pyrido[4',3':5,6]thiopyrano[4,3,2-cd]indazol-5-yl]-1,2-ethanediamine], for which the IC50 in the series on S180 was 0.058 µg/mL (≈ 0.164 µM); with L1210 it was 0.014 µg/mL (≈ 0.0395 µM).
Consider `CN(C)CCn1nc2c3c(c(NC(=O)CN)ccc31)Sc1ncccc1-2` [ex. 10-cpd 1, N'-[2-(2-dimethylamino)ethyl]-5-(2'-amino-acetylamino)-2H-pyrido[3',2':5,6]thiopyrano [4,3,2-cd]indazole], for which the IC50 was 0.22 µg/mL (≈ 0.597 µM) in the series with S180 and 0.03 µg/mL (≈ 0.0814 µM) in the series on L1210.
As for `CN(C)CCn1nc2c3c(c(NC(=O)CN)ccc31)Sc1ccncc1-2` [ex. 10-cpd 2, N'-[2-(2-dimethylamino)ethyl]-5-(2'-amino-acetylamino)-2H-pyrido[3',4':5,6]thiopyrano [4,3,2-cd]indazole], the IC50 in the series with LoVo/Dx [1] (setting [11]) came to 0.21 µg/mL (≈ 0.57 µM); in the series with LoVo (setting [12]), 0.04 µg/mL (≈ 0.109 µM).
Consider `CCN(CC)CCn1nc2c3c(c([N+](=O)[O-])ccc31)Sc1ccncc1-2` [ex. 11-cpd 1, N,N-diethyl-5-nitro-2 H-pyrido[3',4': 5,6]thiopyrano[4,3,2-cd]indazole-2-ethanamine], for which the IC50 in the series with S180 was 0.0031 µg/mL (≈ 0.00839 µM); in the series with L1210 it was 0.00061 µg/mL (≈ 0.00165 µM).
The like results for `CCN(CC)CCn1nc2c3c(c([N+](=O)[O-])ccc31)Sc1ncccc1-2` [ex. 11-cpd 2, N,N-diethyl-5-nitro-2H-pyrido[3',2':5,6]thiopyrano[4,3,2-cd]indazole-2-ethanamine] were, in that order, 0.22 µg/mL (≈ 0.595 µM) and 0.2 µg/mL (≈ 0.541 µM).
As to `CCN(CC)CCn1nc2c3c(c(N)ccc31)Sc1ccncc1-2` [ex. 12-cpd 1, N,N-diethyl-5-amino-2H-pyrido[3',4':5,6]thiopyrano[4,3,2-cd]indazole-2-ethanamine], the IC50 in the series with LoVo/Dx [1] (setting [11]) was 0.094 µg/mL (≈ 0.277 µM); in the series with LoVo (setting [12]) it was 0.036 µg/mL (≈ 0.106 µM); in the series on S180, 0.0031 µg/mL (≈ 0.00913 µM); in the series on L1210, 0.0015 µg/mL (≈ 0.00442 µM).
In the case of `O=C1c2c(O)ccc(O)c2C(=O)c2c(NCCNCCO)ccc(NCCNCCO)c21` [mitoxantrone, 5,8-dihydroxy-1,4-bis[(2-(2-hydroxyethylamino)ethyl)amino]anthracene-9,10-dione], in series [9], the delayed toxicity entry was “a delayed toxicity is observed only with mitoxantrone”. Moreover, the myelodepressive toxicity entry in series [6] was “remarkable myelodepressive toxicity”. Also, the IC50 with LoVo/Dx [1] (LoVo/DX, 1 h) stood at 0.67 µg/mL (≈ 1.51 µM); in the series on LoVo (1 h), 0.024 µg/mL (≈ 0.054 µM). In series [10] (clinical trials, advanced breast cancer, acute leukemia and lymphoma), the clinical activity entry is given as “particularly promising activity”. Also, the clinical cardiotoxicity entry in series [10] (mostly in patients previously treated with doxorubicin) was “some clinical cardiotoxicity has been observed”. The “cardiotoxicity in comparison to doxorubicin” value in [8] (animal studies) was “diminished cardiotoxicity in comparison to doxorubicin”.
With `CC[C@]1(O)C[C@H]2CN(CCc3c([nH]c4ccccc34)[C@@](C(=O)OC)(c3cc4c(cc3OC)N(C=O)[C@H]3[C@@](O)(C(=O)OC)[C@H](OC(C)=O)[C@]5(CC)C=CCN6CC[C@]43[C@@H]65)C2)C1` [vincristine], the “resistance of the LoVo/DX subline” value in the series on LoVo/Dx [5] was “resistant”.
